# Test results: patent US20090289071A1, “Flow Through Components with an Antimicrobial Lining” (THE BOC GROUP, INC., priority 2004, published 2009)
# Legend:
# [1] = estimated; called medium value
# [2] = not given; remark: listed apart in the source
smiles,measurement,setting,value
"CCCCNC(=O)[N-]S(=O)(=O)c1ccc(C)cc1.[Ag+] [AgTol, silver tolbutamide]",light stability,as a solid,light stable
same,photostability,present in a coating,not photostable
same,dissociation constant (pK),[1],> 3.3
same,solubility compared with silver sulfadiazine,[2]; relative to silver sulfadiazine,considerably greater than that of silver sulfadiazine
same,solubility,"[2]; variety of organic solvents, including solvents containing polymers",soluble in a variety of organic solvents
